# Patent publication US11286268B1, “EIF4E-inhibiting compounds and methods” (EFFECTOR THERAPEUTICS, INC., priority 2019, dated 2022)
# Target: recombinant eIF4E (Homo sapiens (Human), UniProt P06730)
# Test: Fluorescence polarization competition assay for eIF4E binding potency
# Details: inhibition of eIF4E/EDA-m7GDP-ATTO-550 binding; calculated IC50 values, Table 4B; read-out: IC50
# Outline: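 Competition of test compound against 20 nM EDA-m^7GDP-ATTO-550 for 75 nM recombinant eIF4E, pre-incubated 5 min, in 20 mM Tris pH 7.5, 100 mM NaCl, 1 mM DTT, 0.02% Tween-20, 1% DMSO. Equilibrated 30 min at room temperature, dark; fluorescence polarization read. IC50 from 8-point, 3-fold dilution series.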
# recombinant eIF4E, sequence (P06730 whole entry): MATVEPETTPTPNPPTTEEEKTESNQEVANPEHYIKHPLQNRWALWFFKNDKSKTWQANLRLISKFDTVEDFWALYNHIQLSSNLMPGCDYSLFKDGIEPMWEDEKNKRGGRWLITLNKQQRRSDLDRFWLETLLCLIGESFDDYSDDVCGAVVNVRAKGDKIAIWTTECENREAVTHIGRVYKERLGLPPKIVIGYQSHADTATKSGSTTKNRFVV
row,IC50,Compound
1,6.07 nM,Cc1nc2cnc(N(C)C3CCN([C@H]4C[C@@H](OC(F)(F)F)C4)CC3)c(C#N)c2c(=O)n1CC#Cc1ccc(Cl)cc1-c1ccnc2c(C(=O)NS(C)(=O)=O)csc12 [compound 1772]
2,47.5 nM,Cc1nc2cnc(N(C)C3CCN([C@H]4C[C@@H](OC(F)(F)F)C4)CC3)c(C#N)c2c(=O)n1CC#Cc1ccc(Cl)cc1-c1ccnc2c(C(=O)NS(=O)(=O)c3ccncc3)csc12 [compound 1773]
3,45 nM,Cc1nc2cnc(N(C)C3CCN([C@H]4C[C@@H](OC(F)(F)F)C4)CC3)c(C#N)c2c(=O)n1CC#Cc1ccc(Cl)cc1-c1ccnc2c(C(=O)NS(=O)(=O)c3cccnc3)csc12 [compound 1774]
4,32.1 nM,CCN(c1ncc2nc(C)n(CC#Cc3ccc(Cl)cc3-c3ccnc4c(C(=O)O)csc34)c(=O)c2c1C#N)C1CCN([C@H]2C[C@@H](OC(F)(F)F)C2)CC1 [compound 1775]
5,3.65 nM,CCN(c1ncc2nc(C)n(CC#Cc3ccc(Cl)cc3-c3ccnc4c(C(=O)NS(C)(=O)=O)csc34)c(=O)c2c1C#N)C1CCN([C@H]2C[C@@H](OC(F)(F)F)C2)CC1 [compound 1776]
6,35.1 nM,CCN(c1ncc2nc(C)n(CC#Cc3ccc(Cl)cc3-c3ccnc4c(C(=O)NS(=O)(=O)c5ccncc5)csc34)c(=O)c2c1C#N)C1CCN([C@H]2C[C@@H](OC(F)(F)F)C2)CC1 [compound 1779]
7,10.9 nM,CCN(c1ncc2nc(C)n(CC#Cc3ccc(Cl)cc3-c3ccnc4c(C(=O)NS(=O)(=O)c5cccnc5)csc34)c(=O)c2c1C#N)C1CCN([C@H]2C[C@@H](OC(F)(F)F)C2)CC1 [compound 1780]
8,8.32 nM,CCN(c1ncc2nc(C)n(CC#Cc3ccc(Cl)cc3-c3ccnc4c(C(=O)NS(=O)(=O)c5ccccn5)csc34)c(=O)c2c1C#N)C1CCN([C@H]2C[C@@H](OC(F)(F)F)C2)CC1 [compound 1781]
9,10.1 nM,Cc1nc2cnc(N(C)C3CCN([C@H]4C[C@H](F)C4)CC3)c(C#N)c2c(=O)n1CC#Cc1ccc(Cl)cc1-c1ccnc2c(C(=O)NS(=O)(=O)C3COC3)csc12 [compound 1791]
10,9.24 nM,Cc1nc2cnc(N(C)C3CCN([C@H]4C[C@H](F)C4)CC3)c(C#N)c2c(=O)n1CC#Cc1ccc(Cl)cc1-c1ccnc2c(C(=O)NS(=O)(=O)c3ccncc3)csc12 [compound 1792]
11,7.29 nM,Cc1nc2cnc(N(C)C3CCN([C@H]4C[C@H](F)C4)CC3)c(C#N)c2c(=O)n1CC#Cc1ccc(Cl)cc1-c1ccnc2c(C(=O)NS(=O)(=O)c3ccccn3)csc12 [compound 1793]
12,9.28 nM,Cc1nc2cnc(N(C)C3CCN([C@H]4C[C@H](F)C4)CC3)c(C#N)c2c(=O)n1CC#Cc1ccc(Cl)cc1-c1ccnc2c(C(=O)NS(=O)(=O)c3cccnc3)csc12 [compound 1794]
13,8.96 nM,CCN(c1ncc2nc(C)n(CC#Cc3ccc(Cl)cc3-c3ccnc4c(C(=O)O)csc34)c(=O)c2c1C#N)C1CCN([C@H]2C[C@H](F)C2)CC1 [compound 1795]
14,10.4 nM,CCS(=O)(=O)NC(=O)c1csc2c(-c3cc(Cl)ccc3C#CCn3c(C)nc4cnc(N(C)C5CCN(C6CC(F)(F)C6)CC5)c(C#N)c4c3=O)ccnc12 [compound 1807]
15,25.8 nM,Cc1nc2cnc(N(C)C3CCN(C4CC(F)(F)C4)CC3)c(C#N)c2c(=O)n1CC#Cc1ccc(Cl)cc1-c1ccnc2c(C(=O)NS(=O)(=O)CF)csc12 [compound 1817]
16,13 nM,Cc1nc2cnc(N(C)C3CCN(C4CC(F)(F)C4)CC3)c(C#N)c2c(=O)n1CC#Cc1ccc(Cl)cc1-c1ccnc2c(C(=O)NS(=O)(=O)C(F)(F)F)csc12 [compound 1818]
17,4.4 nM,Cc1nc2cnc(N(C)C3CCN(C4CC(F)(F)C4)CC3)c(C#N)c2c(=O)n1CC#Cc1ccc(Cl)cc1-c1ccnc2c(C(=O)NS(=O)(=O)CC(F)F)csc12 [compound 1819]
18,6.27 nM,Cc1nc2cnc(N(C)C3CCN(C4CC(F)(F)C4)CC3)c(C#N)c2c(=O)n1CC#Cc1ccc(Cl)cc1-c1ccnc2c(C(=O)NS(=O)(=O)c3ccncc3)csc12 [compound 1829]
19,8.06 nM,Cc1nc2cnc(N(C)C3CCN(C4CC(F)(F)C4)CC3)c(C#N)c2c(=O)n1CC#Cc1ccc(Cl)cc1-c1ccnc2c(C(=O)NS(=O)(=O)c3ccccn3)csc12 [compound 1830]
20,5 nM,Cc1nc2cnc(N(C)C3CCN(C4CC(F)(F)C4)CC3)c(C#N)c2c(=O)n1CC#Cc1ccc(Cl)cc1-c1ccnc2c(C(=O)NS(=O)(=O)c3cccnc3)csc12 [compound 1831]
21,20.5 nM,Cc1nc2cnc(N(C)C3CCN(C4CC(F)(F)C4)CC3)c(C#N)c2c(=O)n1CC#Cc1ccc(Cl)cc1-c1ccnc2c(C(=O)NS(=O)(=O)Cc3ccccn3)csc12 [compound 1832]
22,12.3 nM,CCN(c1ncc2nc(C)n(CC#Cc3ccc(Cl)cc3-c3ccnc4c(C(=O)NS(=O)(=O)c5ccncc5)csc34)c(=O)c2c1C#N)C1CCN(C2CC(F)(F)C2)CC1 [compound 1838]
23,34.5 nM,CCN(c1ncc2nc(C)n(CC#Cc3ccc(Cl)cc3-c3ccnc4c(C(=O)NS(=O)(=O)c5cccnc5)csc34)c(=O)c2c1C#N)C1CCN(C2CC(F)(F)C2)CC1 [compound 1839]
24,26.4 nM,CCN(c1ncc2nc(C)n(CC#Cc3ccc(Cl)cc3-c3ccnc4c(C(=O)NS(=O)(=O)c5ccccn5)csc34)c(=O)c2c1C#N)C1CCN(C2CC(F)(F)C2)CC1 [compound 1840]

# More lines, now with the values behind:
row,Compound,IC50
1,Cc1nc2cnc(N(C)C3CCN(C4CC(F)(F)C4)CC3)c(C#N)c2c(=O)n1CC#Cc1ccc(Cl)cc1-c1ccnc2c(C(=O)NS(=O)(=O)C(C)C)csc12 [compound 1808],5.4 nM
2,Cc1nc2cnc(N(C)C3CCN(C4CC(F)(F)C4)CC3)c(C#N)c2c(=O)n1CC#Cc1ccc(Cl)cc1-c1ccnc2c(C(=O)NS(=O)(=O)C3CC3)csc12 [compound 1809],7.57 nM
3,Cc1nc2cnc(N(C)C3CCN(C4CC(F)(F)C4)CC3)c(C#N)c2c(=O)n1CC#Cc1ccc(Cl)cc1-c1ccnc2c(C(=O)NS(=O)(=O)C3CCC3)csc12 [compound 1810],12.9 nM
4,Cc1nc2cnc(N(C)C3CCN(C4CC(F)(F)C4)CC3)c(C#N)c2c(=O)n1CC#Cc1ccc(Cl)cc1-c1ccnc2c(C(=O)NS(=O)(=O)C3COC3)csc12 [compound 1811],12.7 nM
5,Cc1nc2cnc(N(C)C3CCN(C4CC(F)(F)C4)CC3)c(C#N)c2c(=O)n1CC#Cc1ccc(Cl)cc1-c1ccnc2c(C(=O)NS(=O)(=O)C(C)(C)C)csc12 [compound 1812],18.4 nM
6,Cc1nc2cnc(N(C)C3CCN(C4CC(F)(F)C4)CC3)c(C#N)c2c(=O)n1CC#Cc1ccc(Cl)cc1-c1ccnc2c(C(=O)NS(=O)(=O)CC#N)csc12 [compound 1825],17.1 nM
7,Cc1nc2cnc(N(C)C3CCN(C4CC(F)(F)C4)CC3)c(C#N)c2c(=O)n1CC#Cc1ccc(Cl)cc1-c1ccnc2c(C(=O)NS(=O)(=O)CCC#N)csc12 [compound 1826],18.4 nM
8,Cc1nc2cnc(N(C)C3CCN(C4CC(F)(F)C4)CC3)c(C#N)c2c(=O)n1CC#Cc1ccc(Cl)cc1-c1ccnc2c(C(=O)NS(=O)(=O)CC(C)(C)C#N)csc12 [compound 1827],14.8 nM
9,Cc1nc2cnc(N(C)C3CCN(C4CC(F)(F)C4)CC3)c(C#N)c2c(=O)n1CC#Cc1ccc(Cl)cc1-c1ccnc2c(C(=O)NS(=O)(=O)C3CC(F)(F)C3)csc12 [compound 1833],14.8 nM
10,Cc1nc2cnc(N(C)[C@H]3CC[C@H](N(C)CC(F)F)CC3)c(C#N)c2c(=O)n1CC#Cc1ccc(Cl)cc1-c1ccnc2c(C(=O)O)csc12 [compound 1895],12.7 nM
11,Cc1nc2cnc(N(C)[C@H]3CC[C@@H](N(C)CC(F)F)CC3)c(C#N)c2c(=O)n1CC#Cc1ccc(Cl)cc1-c1ccnc2c(C(=O)O)csc12 [compound 1896],12.2 nM
12,Cc1nc2cnc(N(C)[C@@H]3CC[C@H](N(C)CC(F)F)C3)c(C#N)c2c(=O)n1CC#Cc1ccc(Cl)cc1-c1ccnc2c(C(=O)O)csc12 [compound 1897],13.1 nM
13,Cc1nc2cnc(/C=C/CN(C)CC(F)(F)F)c(C#N)c2c(=O)n1CCOc1ccc(Cl)cc1-c1ccnc2c(C(=O)O)csc12 [compound 1898],61.3 nM
14,N#Cc1cc(C(F)(F)F)cc2ncn(CCOc3ccc(Cl)cc3-c3ccnc4c(C(=O)O)csc34)c(=O)c12 [compound 1899],16.4 nM
15,COC(=O)c1csc2c(-c3cc(Cl)ccc3OCCn3c(C)nc4cc(C(F)(F)F)cc(C#N)c4c3=O)ccnc12 [compound 1900],2700 nM
16,Cc1nc2cc(C(F)(F)F)cc(C#N)c2c(=O)n1CC#Cc1ccc(Cl)cc1-c1ccnc2c(C(=O)O)csc12 [compound 1901],35.7 nM
17,Cc1nc2cc(C(F)(F)F)cc(C#N)c2c(=O)n1CCOc1cc(F)c(Cl)cc1-c1ccnc2c(C(=O)O)csc12 [compound 1903],29.8 nM
18,Cc1nc2cc(C(F)(F)F)c(Cl)c(C#N)c2c(=O)n1CCOc1ccc(Cl)cc1-c1ccnc2c(C(=O)O)csc12 [compound 1904],36.9 nM
19,COC(=O)c1csc2c(-c3cc(Cl)ccc3OCCn3c(C)nc4cc(C(F)(F)F)c(Cl)c(C#N)c4c3=O)ccnc12 [compound 1905],881 nM
20,COC(=O)c1csc2c(-c3cc(Cl)ccc3OCCn3c(C)nc4cc(C(F)(F)F)c(CN(C)C)c(C#N)c4c3=O)ccnc12 [compound 1907],405 nM
21,Cc1cc(-c2cc(Cl)ccc2OCCn2c(C)nc3cc(C(F)(F)F)c(CC4CCN(C)CC4=O)c(C#N)c3c2=O)c2scc(C(=O)O)c2n1 (stereo not shown) [compound 1908],5.17 nM
22,Cc1cc(-c2cc(Cl)ccc2OCCn2c(C)nc3cc(C(F)(F)F)c(-c4ccc(F)c(C)n4)c(C#N)c3c2=O)c2scc(C(=O)O)c2n1 [compound 1909],29.2 nM
23,Cc1ccc(-c2c(C(F)(F)F)cc3nc(C)n(CCOc4ccc(Cl)cc4-c4cc(C)nc5c(C(=O)O)csc45)c(=O)c3c2C#N)cn1 [compound 1910],47.4 nM
24,CCc1ncc(-c2c(C(F)(F)F)cc3nc(C)n(CCOc4ccc(Cl)cc4-c4cc(C)nc5c(C(=O)O)csc45)c(=O)c3c2C#N)cc1F [compound 1911],4.03 nM
25,Cc1nc2cc(C(F)(F)F)c(N3CCC4(CC3)CN(CC(F)F)C4)c(C#N)c2c(=O)n1CCOc1ccc(Cl)cc1-c1ccnc2c(C(=O)O)csc12 [compound 1912],5.96 nM
